Laboratory results as given in paper PMC7822874, “Chemoprotective antimalarials identified through quantitative high-throughput screening of Plasmodium blood and liver stage parasites” (Scientific Reports, 2021).
“And” between values parts separate entries of the source, which are not always exact repeats. Identical values can stand only once. Like-named read-outs stand apart in the source and are kept apart here.

Key:
[1] = test system: P. falciparum Dd2 Cytb A122D; assay: SYBR Green ABS proliferation assay, NCGC00473217 selected clone F12; assay type: cell-based, Plasmodium falciparum; settings: for AC50: Plasmodium falciparum
In short: (§1)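 Drug-selected P. falciparum Dd2 clones carrying Cytb mutations, obtained by limiting-dilution cloning, grown in RBCs at 37 °C under 5% CO2/5% O2/90% N2. Growth read by SYBR Green-I fluorescence at 72 h and normalized to controls.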

[2] = test system: P. falciparum Dd2 Cytb V259L; assay: SYBR Green ABS proliferation assay, NCGC00473217 selected clone F06; assay type: cell-based, Plasmodium falciparum; settings: for AC50: Plasmodium falciparum
In short: as §1

[3] = test system: P. falciparum Dd2 (clone B2) asexual blood stage parasites; assay: P. falciparum Dd2 asexual blood stage SYBR Green-I 72 h proliferation assay (qHTS); assay type: cell-based, Plasmodium falciparum; settings: Plasmodium falciparum
[4] = test system: P. falciparum Dd2 Cytb G131S; assay: SYBR Green ABS proliferation assay, NCGC00374598 selected clone C11; assay type: cell-based, Plasmodium falciparum; settings: for AC50: Plasmodium falciparum
In short: as §1

[5] = test system: P. falciparum Dd2 Cytb F123L; assay: SYBR Green ABS proliferation assay, NCGC00473217 selected clone G08; assay type: cell-based, Plasmodium falciparum; settings: for AC50: Plasmodium falciparum
In short: as §1

[6] = test system: luciferase-expressing P. berghei liver stage parasites in HepG2 cells; assay: Inhibition of liver-stage development assay (ILSDA), Method 2 (WRAIR, 96-well); assay type: cell-based, Plasmodium berghei; settings: for Max Resp (signal direction of the dose response): Method 2, Decrease = decreasing P. berghei viability with dose, Increase = increasing signal, Inactive = no dose response; for AC50: Plasmodium berghei, HepG2, Method 2; for Activity direction (Decrease / Inactive): P. berghei liver stage, Method 2, dose response
[7] = test system: Plasmodium falciparum Dd2 asexual blood stage parasites; assay: microbe, parasite or virus in culture; design: species or system Plasmodium falciparum Dd2 in human erythrocytes; single determination (one 11-point concentration-response curve); settings: Plasmodium falciparum, DD2, Erythrocyte, 72 h; read-out: AC50
[8] = test system: T1, Plasmodium falciparum Dd2-attB-ScDHODH (transgenic line expressing yeast DHODH), asexual blood stages; assay: organism not typed; design: replicate k of 3 (each line is one of three independent assays; the three lines of one compound and parasite line follow each other); settings: 72 h, n = 1
T1 construct: Dd2-attB-ScDHODH, the transgenic line that expresses yeast DHODH
In short: (§2)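 Both lines were tested side by side with selected compounds, repeated in three independent assays. Differences between parental and ScDHODH-expressing parasites were then assessed with a two-sided Student's t-test.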

[9] = test system: P. berghei-ANKA-GFP-LucCON liver stage parasites in HepG2-A16-CD81EGFP cells; assay: P. berghei liver stage Pb-Luc assay, Method 1 (UCSD, 1536-well); assay type: cell-based, Plasmodium berghei; settings: Method 1; Decrease = decreasing P. berghei viability with dose, Increase = increasing signal, Inactive = no dose response
[10] = test system: T2, Plasmodium falciparum Dd2-attB (parental line), asexual blood stages; assay: microbe, parasite or virus in culture; design: replicate k of 3 (each line is one of three independent assays; the three lines of one compound and parasite line follow each other); settings: n = 1
T2 construct: Dd2-attB, the isogenic parental line
In short: as §2

[11] = DD2, cytochrome b mutant line, fourth value triple, c12, […], read-out: log AC50, mean (converted)
[12] = DD2, cytochrome b mutant line, third value triple, c9, […], read-out: log AC50, mean (converted)
[13] = Hill fit, 50% of maximum activity response, read-out: AC50
[14] = log10 of molar AC50 from Hill fit, read-out: Log AC50 (converted)
[15] = DD2, cytochrome b mutant line, second value triple, c6, […], read-out: log AC50, mean (converted)
[16] = DD2, cytochrome b mutant line, fifth value triple, c15, […], read-out: log AC50, mean (converted)

Structure (SMILES): O=C1C(O)=C([C@H]2CC[C@H](c3ccc(Cl)cc3)CC2)C(=O)c2ccccc21 [Atovaquone, atovaquone, reference compound]
- susceptibility of A122D mutant compared to parental line [1]: significantly more susceptible
- AC50 ([1]; DD2, NCGC00473217 selected clone, read-out: AC50 Log[M] ± SD, Cytb A122D (converted)): 5.5e-10 M
- AC50 ([1]; DD2, Suppl Table 6, read-out: AC50 (mM), Dd2 Cytb A122D): 5.5e-10 M
- susceptibility of V259L variant compared to parental line [2]: significantly less susceptible
- AC50 ([2]; DD2, NCGC00473217 selected clone, read-out: AC50 Log[M] ± SD, Cytb V259L (converted)): 2.34e-08 M
- AC50 ([2]; DD2, Suppl Table 6, read-out: AC50 (mM), Dd2 Cytb V259L): 2.34e-08 M
- AC50 ([3]; DD2, 72 h, SYBR Green 72 h, WT Dd2-B2, read-out: AC50 Log[M] ± SD, Dd2-B2 (parental line) (converted)): 3.31e-09 M
- AC50 ([3]; DD2, Suppl Table 6, read-out: AC50 (mM), WT (Dd2-B2)): 3.3e-09 M
- potency in G131S mutant lines compared to parental line [4]: potency was not compromised
- AC50 ([4]; DD2, NCGC00374598 selected clone, read-out: AC50 Log[M] ± SD, Cytb G131S (converted)): 2.19e-09 M
- AC50 ([4]; DD2, Suppl Table 6, read-out: AC50 (mM), Dd2 Cytb G131S): 2.2e-09 M
- susceptibility of F123L mutant compared to parental line [5]: significantly more susceptible
- AC50 ([5]; DD2, NCGC00473217 selected clone, read-out: AC50 Log[M] ± SD, Cytb F123L (converted)): 8.71e-10 M
- AC50 ([5]; DD2, Suppl Table 6, read-out: AC50 (mM), Dd2 Cytb F123L): 9e-10 M

Structure (SMILES): CC(=O)Nc1ccc(CN2CCc3nc(C(C)C)nc(-c4ccc(Cl)cc4)c3CC2)cc1 [NCGC00374598-01]
- AC50 [1, 11]: 3.35e-06 M
- AC50 [2, 12]: 4.91e-06 M
- Max Resp (signal direction of the dose response) [6]: Decrease
- AC50 [6, 13]: 0.501 µM
- AC50 [6, 14]: 0.501 µM
- AC50 [7]: 2.66 µM
- Individual replicates / Log AC50 (M) [8]: -5.1486 Log AC50 (M) and -4.9986 Log AC50 (M) and -5.3986 Log AC50 (M)
- Max Resp (signal direction of the dose response) [9]: Decrease
- AC50 [4, 15]: 4.91e-06 M
- Individual replicates / Log AC50 (M) ([10]; 72 h): -5.6986 Log AC50 (M) and -5.7986 Log AC50 (M)
- AC50 ([10]; Plasmodium falciparum, DD2, 72 h, read-out: Individual replicates / Log AC50 (converted)): 1.26 µM
- AC50 [5, 16]: 7.78e-07 M

Structure (SMILES): COc1ccc(-c2nc(C3CC3)nc3c2CCN(Cc2cc(C)on2)CC3)cc1 [NCGC00374666-01]
- AC50 [1, 11]: 6.93e-06 M
- AC50 [2, 12]: 8.09e-06 M
- Max Resp (signal direction of the dose response) [6]: Decrease
- AC50 [6, 13]: 0.794 µM
- AC50 [6, 14]: 0.794 µM
- AC50 [4, 15]: 8.09e-06 M
- AC50 [5, 16]: 5.31e-06 M

Structure (SMILES): O=c1[nH]c(N2CCOCC2)nc2c1CCN(Cc1cc(F)c(F)cc1F)CC2 [NCGC00440659-01]
- AC50 [1, 11]: 1.74e-05 M
- AC50 [2, 12]: 1.81e-05 M
- Activity direction (Decrease / Inactive) [6]: Inactive
- AC50 [7]: 15 µM
- AC50 [4, 15]: 1.14e-05 M
- AC50 [5, 16]: 4.91e-06 M

Structure (SMILES): c1ccc(OCCNc2nc(-c3cccnc3)nc3c2CCNCC3)cc1 [NCGC00443183-01]
- AC50 [1, 11]: 7.21e-06 M
- AC50 [2, 12]: 5.73e-06 M
- Activity direction (Decrease / Inactive) [6]: Inactive
- AC50 [4, 15]: 6.93e-06 M
- AC50 [5, 16]: 5.11e-06 M

Structure (SMILES): O=[S+]([O-])(c1cccs1)N1CCc2nc(C3CC3)nc(-c3ccc(Cl)cc3)c2CC1 [NCGC00476969-01]
- AC50 [1, 11]: 1.38e-05 M
- AC50 [2, 12]: 1.19e-05 M
- Activity direction (Decrease / Inactive) [6]: Inactive
- AC50 [4, 15]: 7.78e-06 M
- AC50 [5, 16]: 1.23e-05 M

Structure (SMILES): CCc1nc2c(c(-c3ccc(O)cc3)n1)CCN(Cc1ccc(OC)cc1)CC2 [NCGC00480297-01]
- AC50 [1, 11]: 6.18e-06 M
- AC50 [2, 12]: 5.11e-06 M
- AC50 [7]: 6.68 µM
- AC50 [4, 15]: 5.11e-06 M
- AC50 [5, 16]: 5.31e-06 M

Structure (SMILES): CCc1nc2c(c(-c3ccc(O)cc3)n1)CCN(Cc1ccccc1C(F)(F)F)CC2 [NCGC00480300-01]
- AC50 [1, 11]: 4.22e-06 M
- AC50 [2, 12]: 4.73e-06 M
- AC50 [7]: 2.99 µM
- AC50 [4, 15]: 3.9e-06 M
- AC50 [5, 16]: 4.06e-06 M

Structure (SMILES): CCc1nc2c(c(-c3ccc(O)cc3)n1)CCN(Cc1ccc(OC(F)(F)F)cc1)CC2 [NCGC00480301-01]
- AC50 [1, 11]: 6.18e-06 M
- AC50 [2, 12]: 5.73e-06 M
- Activity direction (Decrease / Inactive) [6]: Inactive
- AC50 [7]: 1.5 µM
- AC50 [4, 15]: 5.11e-06 M
- AC50 [5, 16]: 7.78e-06 M

Structure (SMILES): CC(C)c1nc2c(c(-c3ccc(O)cc3)n1)CCN(CC1CCCCC1)CC2 [NCGC00480317-01]
- AC50 [1, 11]: 8.41e-06 M
- AC50 [2, 12]: 5.73e-06 M
- AC50 [7]: 4.73 µM
- AC50 [4, 15]: 5.73e-06 M
- AC50 [5, 16]: 5.11e-06 M
